# Assay results: US20240139171A1, “TREATMENT AND/OR REDUCTION OF OCCURRENCE OF MIGRAINE” (CGRP Diagnostics GmbH, priority 2021, published 2024)
# Assays:
# [1] = tested on: naive central trigeminovascular neurons; conditions: in vivo; cited from earlier work
# [2] = tested on: naive high-threshold (HT) trigeminovascular neurons in the spinal trigeminal nucleus; assay: Single-unit recording of spontaneous and evoked activity of naive HT trigeminovascular neurons; type: in vivo, rat; conditions: 30 mg/kg IV
# Text: (§1) Experiments were approved by the Beth Israel Deaconess Medical Center and Harvard Medical School standing committees on animal care, and in accordance with the U. S. National Institutes of Health Guide for the Care and Use of Laboratory Animals. Male and female Sprague-Dawley rats (250-350 g) were anesthetized with urethane (0.9-1.2 g/kg i.p.). They were fitted with an intra-tracheal tube to allow artificial ventilation (0.1 L/min of O2), and an intra-femoral-vein cannula for later infusion of drugs. Rats were placed in a stereotaxic apparatus, and core temperature was kept at 37° C. using a heating blanket. End-tidal CC was continuously monitored and kept within physiological range (3.5-4.5 pCC). Once stabilized, rats were paralyzed with rocuronium bromide (10 mg/ml, 1 ml/hr continuous intravenous infusion) and ventilated. For stimulation of the cranial dura later in the experiment, a 5×5-mm opening was carefully carved in the parietal and occipital bones in front and behind the lambda suture, directly above the left transverse sinus. The exposed dura was kept moist using a modified synthetic interstitial fluid (135 mM NaCl, 5 mM KCl, 1 mM MgCh, 5 mM CaCh, 10 mM glucose and 10 mM Hepes, pH 7.2). For single-unit recording in the spinal trigeminal nucleus, a segment of the spinal cord between the obex and C2 was uncovered from overlying tissues, stripped of the dura mater, and kept moist with mineral oil.
# (§2) To record neuronal activity, a tungsten microelectrode (impedance 3-4 MO) was lowered repeatedly into the spinal trigeminal nucleus (STN) in search of central trigeminovascular neurons receiving convergent input from the dura and facial skin. Trigeminovascular neurons were first identified based on their responses to electrical stimulation of the dura. […] Dural receptive fields were mapped by indenting the dura (with the 4.19 g VFH monofilament) at points separated by 1 mm mediolaterally and rostrocaudally. Points at which dural indentation produced a response in >50% of the trials were considered inside the neurons receptive field. Cutaneous receptive fields were mapped by applying innocuous and noxious mechanical stimulation to all facial skin areas and the cornea. An area was considered outside the receptive field if no stimulus produced a response in >50% of the trials. Responses to mechanical stimulation of the skin were determined by applying brief (10 s) innocuous and noxious stimuli to the most sensitive portion of the cutaneous receptive field. Innocuous stimuli consisted of slowly passing a soft bristled brush across the cutaneous receptive field (one 5-s brush stroke from caudal to rostral and one 5-s brush stroke from rostral to caudal) and pressure applied with a loose arterial clip. Noxious stimuli consisted of pinch with a strong arterial clip (Palecek et al, 1992, J. Neurophysiol. 67: 1562-1573; Dado et al, 1994, J. Neurophysiol. 71:981-1002; Burstein et al., 1998, J. Neurophysiol. 79:964-982). More intense or prolonged stimuli were not used to avoid inducing prolonged changes in spontaneous neuronal discharge or response properties. Responses to mechanical stimulation of the cornea consisted of gentle and slow brushing strokes with a thin paintbrush (about 10 hair-follicles). Two classes of neurons were thus identified: wide-dynamic-range (WDR) neurons (incrementally responsive to brush, pressure and pinch), and high-threshold (HT) neurons (unresponsive to brush). Real-time waveform discriminator was used to create and store a template for the action potential evoked in the neuron under study by electrical pulses on the dura; spikes of activity matching the template waveform were acquired and analyzed online and offline using Spike 2 software (CED, Cambridge, UK). Induction and recording of cortical spreading depression.
# (§3) Cortical spreading depression (CSD) was induced mechanically by inserting a glass micropipette (tip diameter 25 μm) about 1 mm into the visual cortex for 10 sec. […]
# [3] = tested on: naive wide-dynamic-range (WDR) trigeminovascular neurons in the spinal trigeminal nucleus; assay: Single-unit recording of spontaneous and evoked activity of naive WDR trigeminovascular neurons; type: in vivo, rat; conditions: 30 mg/kg IV
# Text: as §1, with “For single-unit recording in the spinal trigeminal nucleus, a segment of the spinal cord between the obex and C2 was uncovered from overlying tissues, stripped of the dura mater, and kept moist with mineral oil.” left out
# To record neuronal activity, a tungsten microelectrode (impedance 3-4 MO) was lowered repeatedly into the spinal trigeminal nucleus (STN) in search of central trigeminovascular neurons receiving convergent input from the dura and facial skin. […] Responses to mechanical stimulation of the skin were determined by applying brief (10 s) innocuous and noxious stimuli to the most sensitive portion of the cutaneous receptive field. […] Real-time waveform discriminator was used to create and store a template for the action potential evoked in the neuron under study by electrical pulses on the dura; spikes of activity matching the template waveform were acquired and analyzed online and offline using Spike 2 software (CED, Cambridge, UK). […]
# [4] = tested on: high-threshold (HT) trigeminovascular neurons; assay: Activation and sensitization of HT trigeminovascular neurons by cortical spreading depression (CSD); type: in vivo, rat; conditions: 30 mg/kg IV; for mean firing rate of HT neurons before CSD: before CSD (4 hours post-treatment)
# Text: as §1, §2, §3
# [5] = tested on: wide-dynamic-range (WDR) trigeminovascular neurons; assay: Activation of WDR trigeminovascular neurons by cortical spreading depression (CSD); type: in vivo, rat; conditions: male and female rats, 30 mg/kg IV
# Text: Experiments were approved by the Beth Israel Deaconess Medical Center and Harvard Medical School standing committees on animal care, and in accordance with the U. S. National Institutes of Health Guide for the Care and Use of Laboratory Animals. Male and female Sprague-Dawley rats (250-350 g) were anesthetized with urethane (0.9-1.2 g/kg i.p.). They were fitted with an intra-tracheal tube to allow artificial ventilation (0.1 L/min of O2), and an intra-femoral-vein cannula for later infusion of drugs. Rats were placed in a stereotaxic apparatus, and core temperature was kept at 37° C. using a heating blanket. End-tidal CC was continuously monitored and kept within physiological range (3.5-4.5 pCC). Once stabilized, rats were paralyzed with rocuronium bromide (10 mg/ml, 1 ml/hr continuous intravenous infusion) and ventilated. […]
# To record neuronal activity, a tungsten microelectrode (impedance 3-4 MO) was lowered repeatedly into the spinal trigeminal nucleus (STN) in search of central trigeminovascular neurons receiving convergent input from the dura and facial skin. […] Responses to mechanical stimulation of the skin were determined by applying brief (10 s) innocuous and noxious stimuli to the most sensitive portion of the cutaneous receptive field. […]
# meningeal Aδ-fibers = conditions: in vivo; cited from earlier work
# [6] = female rats, 2 hours after CSD, 6 hours after administration
# [7] = male and female rats, 2 hours after CSD, 6 hours after administration
# [8] = male rats, 2 hours after CSD, 6 hours after administration
compound,measurement,setting,value
NCCCC[C@H](NC(=O)[C@@H](Cc1cc(Br)c(O)c(Br)c1)NC(=O)N1CCC(N2Cc3ccccc3NC2=O)CC1)C(=O)N1CCN(c2ccncc2)CC1 [BIBN4096BS],effect on naive central trigeminovascular neurons responses to electrical stimulation of the superior sagittal sinus and microiontophoretic L-glutamate,[1],inhibits
fremanezumab [CGRP-mAb],decrease in firing of HT neurons to mechanical stimulation of the dura,[2]; female rats,61%
same,effect on spontaneous activity of HT neurons,[2]; female rats,did not reduce the spontaneous activity of HT or WDR neurons
same,effect on sensitivity of HT neurons to mechanical stimulation of the dura,[2]; male and female rats,reduced the sensitivity to mechanical stimulation of the dura in the HT
same,"effect on responses of HT neurons to innocuous (brush, pressure) or noxious (pinch) mechanical stimulation of the skin or the cornea",[2]; male or female rats,did not alter the responses of HT or WDR neurons
same,decrease in firing of HT neurons to mechanical stimulation of the dura,[2]; male rats,75%
same,effect on spontaneous activity of HT neurons,[2]; male rats,reduced the spontaneous activity of the HT
same,decrease in spontaneous neuronal firing of HT neurons,"[2]; male rats, within 3-4 hrs",90%
same,effect on spontaneous activity of WDR neurons,[3]; female rats,did not reduce the spontaneous activity of HT or WDR neurons
same,effect on sensitivity of WDR neurons to mechanical stimulation of the dura,[3]; male and female rats,but not the WDR neurons
same,"effect on responses of WDR neurons to innocuous (brush, pressure) or noxious (pinch) mechanical stimulation of the skin or the cornea",[3]; male or female rats,did not alter the responses of HT or WDR neurons
same,HT neurons with expanded dural receptive fields after CSD,[4]; female rats,0/6
same,HT neurons with expanded facial receptive fields after CSD,[4]; female rats,0/6
same,change of HT response to brushing the cornea after CSD,[4]; female rats,remained unchanged
same,HT neuronal responses to dural indentation with VFH after CSD,[4]; [6],8.1±6.4 spikes/sec
same,mean firing rate of HT neurons after CSD,[4]; [6],5.0±3.4 spikes/sec
same,HT neuronal responses to dural indentation with VFH before CSD,"[4]; female rats, before CSD",10.5±1.6 spikes/sec
same,mean firing rate of HT neurons before CSD,[4]; female rats,3.3±1.7 spikes/sec
same,"difference in proportion of HT neurons activated by CSD, CGRP-mAb vs isotype-conAb",[4]; male and female rats,86%
same,change of HT neuronal responses to brush after CSD,[4]; [7],remained unchanged
same,change of HT neuronal responses to pinch after CSD,[4]; [7],remained unchanged
same,change of HT neuronal responses to pressure after CSD,[4]; [7],remained unchanged
same,HT neurons activated by CSD (case-by-case analysis),"[4]; male and female rats, activated/tested neurons",2/14
same,HT neurons with expanded dural receptive fields after CSD,[4]; male rats,2/8
same,HT neurons with expanded facial receptive fields after CSD,[4]; male rats,2/8
same,HT neuronal responses to dural indentation with VFH after CSD,[4]; [8],1.9±1.5 spikes/sec
same,mean firing rate of HT neurons after CSD,[4]; [8],1.9±1.5 spikes/sec
same,HT responses to corneal stimulation after CSD,"[4]; male rats, after CSD",9. ±1.8 spikes/sec
same,HT neuronal responses to dural indentation with VFH before CSD,"[4]; male rats, before CSD",1.8±0.6 spikes/sec
same,HT responses to corneal stimulation before CSD,"[4]; male rats, before CSD",10.8±3.3 spikes/sec
same,mean firing rate of HT neurons before CSD,[4]; male rats,1.2±0.6 spikes/sec
same,"difference in proportion of WDR neurons activated by CSD, CGRP-mAb vs isotype-conAb",[5],2%
same,WDR neurons activated by CSD (case-by-case analysis),[5]; activated/tested neurons,5/13
same,effect on meningeal Aδ-fibers,meningeal Aδ-fibers,inhibits
